Results from patent US9487489B2, “Halogen-substituted pyrazole derivatives as pest-control agents” (BAYER CROPSCIENCE AKTIENGESELLSCHAFT, priority 2013, dated 2016).
Where “and” joins values, the source holds several entries; their conditions need not be identical. Equal values may be shown once.

Columns and labels:
[1] = system: cattle ticks (Boophilus microplus) Parkhurst strain, SP-resistant; assay: Boophilus microplus dip test (BOOPMI Dip); type: in vivo; settings: application rate 100 ppm, assessed after 7 days
Method: B. Boophilus microplus-dip Test (BOOPMI Dip)
Test animals: cattle ticks (Boophilus microplus) Parkhurst strain, SP-resistant
Solvent: dimethyl sulphoxide
10 mg of active compound are dissolved in 0.5 ml of dimethyl sulphoxide. For the purpose of preparing a suitable formulation, the active compound solution is diluted with water to the concentration desired in each case.
This active compound preparation is pipetted into tubes. 8-10 adult engorged female cattle ticks (Boophilus microplus) are transferred into a further tube with holes. The tube is immersed into the active compound formulation, and all ticks are completely wetted. After the liquid has run out, the ticks are transferred on filter discs into plastic dishes and stored in a climate-controlled room.
The activity is assessed after 7 days by laying of fertile eggs. Eggs whose fertility is not visible from the outside are stored in a climate-controlled cabinet until the larvae hatch after about 42 days. An efficacy of 100% means that none of the ticks has laid any fertile eggs; 0% means that all eggs are fertile.

[2] = system: engorged adult female cattle ticks (Boophilus microplus); assay: Boophilus microplus injection test (BOOPMI Inj); type: in vivo; settings: application rate 20 μg/animal; injection into abdomen; assessed after 7 days
How it was run: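 DMSO solution of compound (1 μl) injected into the abdomen of 5 engorged adult female ticks, which are then held in a climate-controlled room. After 7 days, efficacy is scored from laying of fertile eggs, with unclear eggs kept until larval hatch (~42 days); 100% means no fertile eggs, 0% all fertile.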

[3] = system: adult cat fleas (Ctenocephalides felis); assay: Ctenocephalides felis oral test (CTECFE); type: in vivo; settings: application rate 100 ppm in citrated cattle blood; after 2 days
How it was run: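 About 20 unfed adult cat fleas fed through parafilm membrane on citrated cattle blood containing compound (DMSO stock diluted in blood to test concentration). Kill % scored after 2 days (100% = all fleas dead).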

[4] = system: L1 larvae of the Australian sheep blowfly (Lucilia cuprina); assay: Lucilia cuprina test (LUCICU); type: in vivo; settings: application rate 100 ppm; after 2 days
How it was run: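 About 20 L1 larvae placed in a vessel with minced horsemeat plus compound (DMSO concentrate diluted with water to the desired concentration). Kill in % scored after 2 days, 100% meaning all larvae dead.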

[5] = system: adult houseflies (Musca domestica); assay: Musca domestica test (MUSCDO); type: in vivo; settings: application rate 100 ppm; after 2 days
How it was run: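 Compound dissolved in DMSO and diluted with water to the test concentration, applied with sugar solution on a sponge; 10 adult houseflies per vessel. Mortality scored after 2 days as % kill (100% all dead, 0% none).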

[6] = system: green peach aphid (Myzus persicae); assay: Myzus persicae spray test (MYZUPE); type: in vivo; settings: Chinese cabbage leaf discs, after 6 days
How it was run: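 Chinese cabbage leaf discs infested with all aphid stages sprayed with compound in acetone/DMF with alkylaryl polyglycol ether emulsifier in water. Efficacy (% aphids killed; 100% all dead, 0% none) scored after 6 days.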

[7] = system: larvae of the mustard beetle (Phaedon cochleariae); assay: Phaedon cochleariae spray test (PHAECO); type: in vivo; settings: Chinese cabbage leaf discs, after 7 days
How it was run: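 Compound dissolved in acetone/dimethylformamide with alkylaryl polyglycol ether emulsifier, made up in water containing 1000 ppm emulsifier, then diluted to test concentrations and sprayed against mustard beetle larvae. Efficacy (% larvae killed) scored after 7 days.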

[8] = system: caterpillars of the armyworm (Spodoptera frugiperda); assay: Spodoptera frugiperda spray test (SPODFR); type: in vivo; settings: maize leaf discs, after 7 days
How it was run: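 Maize leaf discs sprayed with compound in acetone/DMF with alkylaryl polyglycol ether emulsifier (1000 ppm) in water, dried, then infested with armyworm caterpillars. Mortality (%) scored after 7 days; 100% = all caterpillars killed, 0% = none killed.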

[9] = system: greenhouse red spider mite (Tetranychus urticae); assay: Tetranychus urticae spray test, OP-resistant (TETRUR); type: in vivo; settings: bean leaf discs, after 6 days
How it was run: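 Bean leaf discs carrying all stages of OP-resistant Tetranychus urticae were sprayed with compound formulated in acetone/dimethylformamide and diluted in water with 1000 ppm alkylaryl polyglycol ether emulsifier. Mortality (% efficacy, 100% = all mites killed) scored after 6 days.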

[10] = system: adult cat fleas (Ctenocephalides felis); assay: Ctenocephalides felis in vitro contact test with adult cat fleas (T1); settings: after 48 h
How it was run: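 Test compound was dissolved in acetone p.a. (9 mg per 1 ml) and diluted as needed. 250 μl was spread evenly over the inner walls and floor of a 25 ml test tube by rotating on an orbital shaker for 2 h at 30 rpm. Once the solvent evaporated, 5-10 adult Ctenocephalides felis were added. Tubes were capped with a perforated plastic lid and kept horizontal at room temperature and ambient humidity.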

[11] = system: adult dog ticks (Rhipicephalus sanguineus); assay: Rhipicephalus sanguineus in vitro contact test with adult brown dog ticks (T2); settings: after 48 h
How it was run: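 Acetone solutions coated onto test tube walls and floor, giving 5 μg/cm^2 at 900 ppm. Five to ten adult ticks held per tube in the dark at room temperature for 48 h, then heated at 45-50° C for up to 5 min; efficacy is the percentage of dead or moribund ticks unable to climb away.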

[12] = system: adult castor bean ticks (Ixodes ricinus); assay: Ixodes ricinus in vitro contact test with adult castor bean ticks (T3); settings: after 48 h
Method: T3. Ixodes ricinus-in vitro Contact Tests with Adult Castor Bean Ticks
For the coating of the test tubes, initially 9 mg of active compound are dissolved in 1 ml of acetone p.a. and then diluted with acetone p.a. to the desired concentration. By turning and rocking on an orbital shaker (2 h of rocking rotation at 30 rpm), 250 μl of the solution are distributed homogeneously on the internal walls and the floor of a 25 ml test tube. At 900 ppm active compound solution and 44.7 cm^2 internal surface, an area dose of 5 μg/cm^2 is achieved for homogeneous distribution.
After evaporation of the solvent, the tubes are populated with 5-10 adult castor bean ticks (Ixodes ricinus), sealed with a perforated plastic lid and incubated in a horizontal position in the dark at 22° C. and 90% humidity in a climate-controlled cabinet. After 48 h, the efficacy is determined. To this end, the ticks are knocked to the floor of the tube and incubated on a hotplate at 45-50° C. for at most 5 min. Ticks which remain motionless on the floor or move in an uncoordinated manner such that they are not able to deliberately avoid the heat by climbing upwards are considered to be dead or moribund.
An efficacy of 100% means that all ticks were dead or moribund. 0% efficacy means that none of the ticks had been damaged.

[13] = system: bont tick nymphs (Amblyomma hebraeum); settings: after 48 h
[14] = logP determination by HPLC on a reversed-phase column (C18), EEC Directive 79/831 Annex V.A8; type: physicochemical
How it was run: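 Retention on a C18 reversed-phase column (Zorbax Eclipse Plus, 1.8 micron) was used, eluting with acetonitrile/water, each containing formic acid. The gradient ran from 10% to 95% acetonitrile over 4.25 min, then held 1.25 min, at 55° C and 2.0 ml/min, with MS detection.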

[15] = HPLC on reversed-phase column (C18), acetonitrile/water with formic acid, EEC Directive 79/831 Annex V.A8

SMILES | efficacy (laying of fertile eggs) [1] [%] | efficacy (laying of fertile eggs) [2] [%] | efficacy (kill in %) [3] [%] | efficacy (kill in %) [4] [%] | efficacy (kill in %) [5] [%] | efficacy in % ([7]; application rate 500 g/ha) [%] | efficacy in % ([8]; application rate 500 g/ha) [%] | efficacy in % ([9]; application rate 500 g/ha) [%] | efficacy (dead or moribund fleas) ([10]; application rate 1 μg/cm^2) [%] | efficacy (dead or moribund fleas) ([10]; application rate 5 μg/cm^2) [%] | efficacy (dead or moribund ticks) ([11]; application rate 1 μg/cm^2) [%] | efficacy (dead or moribund ticks) ([11]; application rate 5 μg/cm^2) [%] | efficacy (dead or moribund ticks) ([12]; application rate 5 μg/cm^2) [%] | efficacy (dead or moribund ticks) [13] | efficacy in % ([6]; application rate 100 g/ha) [%] | efficacy in % ([7]; application rate 100 g/ha) [%] | efficacy in % ([8]; application rate 100 g/ha) [%] | efficacy in % ([9]; application rate 100 g/ha) [%] | logP [14, 15] | other results
COc1ncc(-c2cnn(-c3c(C(F)(F)F)c(C(F)(F)C(F)(F)F)nn3C)c2)cc1C(=O)NC1CC1 [Ic-86] | 100 | 100 | 100 | 100 | 100 | 100 | 100 | 100 | 100 | 100 | 100 | 100 | 100 | 100% |  |  |  |  |  | efficacy in % ([6]; application rate 500 g/ha): 100%; efficacy (dead or moribund ticks) ([12]; application rate 1 μg/cm^2): 80%
Cn1nc(C(F)(F)C(F)(F)F)c(C(F)(F)F)c1-n1cnc(-c2ccc(Cl)c(C(=O)NC3(C#N)CC3)c2)c1 [Ib-2] | 100 | 100 | 100 | 100 | 100 |  |  |  | 100 | 100 |  |  |  | 100% | 90 | 100 | 100 | 100 |  | logP ([14]; HPLC, reversed-phase C18, acetonitrile (0.1% formic acid)/water (0.09% formic acid) gradient): 3.38
COc1ncc(-c2cnn(-c3c(C(F)(F)F)c(C(F)(F)C(F)(F)F)nn3C)c2)cc1C(=O)NC1(C#N)CC1 [Ic-87] |  | 100 | 100 | 100 | 100 | 100 | 100 | 100 | 100 | 100 | 100 | 100 | 100 | 100% | 90 |  |  |  |  | efficacy (dead or moribund ticks) ([12]; application rate 1 μg/cm^2): 80%
Cn1nc(C(F)(F)C(F)(F)F)c(C(F)(F)F)c1-n1cc(-c2ccc(Cl)c(C(=O)NCCF)c2)cn1 [Ic-77] | 100 | 100 | 100 | 100 | 100 |  |  |  | 100 | 100 | 100 | 100 |  |  | 100 |  | 100 | 100 | 3.67 | 
Cn1nc(C(F)(F)C(F)(F)F)c(C(F)(F)F)c1-n1cc(-c2cccc(C(=O)NC3(C#N)CC3)c2)cn1 [Ic-19] |  | 100 | 100 | 100 | 100 |  |  |  | 100 | 100 | 100 | 80 |  | 100% |  | 100 | 100 | 100 | 3.61 | 
Cn1nc(C(F)(F)C(F)(F)F)c(C(F)(F)F)c1-n1cc(-c2cccc(C(=O)NC3CC3)c2)cn1 [Ic-18] |  | 100 | 100 | 100 | 100 |  |  |  | 100 | 100 | 100 | 100 | 80 | 100% |  | 100 | 100 |  | 3.66 | 
Cn1nc(C(F)(F)C(F)(F)F)c(C(F)(F)F)c1-n1cc(-c2ccc(Cl)c(C(=O)NC3(C(F)(F)F)CC3)c2)cn1 [Ic-32] |  | 100 | 100 | 100 | 100 |  |  |  |  | 80 | 80 |  |  | 100% |  | 100 | 100 | 100 | 4.29 | 
Cn1nc(C(F)(F)C(F)(F)F)c(C(F)(F)F)c1-n1cc(-c2ccc(Cl)c(C(=O)NCC3CC3)c2)cn1 [Ic-153] | 100 | 100 | 100 | 100 | 100 | 100 | 100 | 100 | 100 | 100 | 80 | 80 |  |  |  |  |  |  |  | efficacy in % ([6]; application rate 500 g/ha): 90%
Cn1nc(C(F)(F)C(F)(F)F)c(C(F)(F)F)c1-n1cc(-c2ccc(Cl)c(C(=O)NCc3ccccc3)c2)cn1 [Ic-3] |  | 100 | 100 | 100 | 100 |  |  |  |  |  |  |  |  | 100% and 80% |  | 100 | 100 | 90 | 4.39 | 
